According to US7468370B2, “[1,7]naphthyridines as PDE4 inhibitors” (Novartis AG, priority 2002, dated 2008):
Structures can show the parent of a compound that is named as a salt.

Tests used:
human PDE4D = target: T1, human PDE4D (Homo sapiens, UniProt Q08499); experiment: PDE4 Isoenzyme Inhibition Assay (Scintillation Proximity Assay, [3H]-cAMP); type: biochemical; conditions: recombinant 6His-tagged human PDE4D3 expressed in Sf21 cells; 1 μM cAMP; 1% DMSO; room temperature
T1 construct: PDE4 cDNA constructs containing the coding regions of the three isoenzymes; made in house; host or cells: Sf21 (Spodoptera frugiperda) insect cells, baculovirus (Bac-To-Bac)
T1 sequence (Q08499 1-673 isoform Q08499-2): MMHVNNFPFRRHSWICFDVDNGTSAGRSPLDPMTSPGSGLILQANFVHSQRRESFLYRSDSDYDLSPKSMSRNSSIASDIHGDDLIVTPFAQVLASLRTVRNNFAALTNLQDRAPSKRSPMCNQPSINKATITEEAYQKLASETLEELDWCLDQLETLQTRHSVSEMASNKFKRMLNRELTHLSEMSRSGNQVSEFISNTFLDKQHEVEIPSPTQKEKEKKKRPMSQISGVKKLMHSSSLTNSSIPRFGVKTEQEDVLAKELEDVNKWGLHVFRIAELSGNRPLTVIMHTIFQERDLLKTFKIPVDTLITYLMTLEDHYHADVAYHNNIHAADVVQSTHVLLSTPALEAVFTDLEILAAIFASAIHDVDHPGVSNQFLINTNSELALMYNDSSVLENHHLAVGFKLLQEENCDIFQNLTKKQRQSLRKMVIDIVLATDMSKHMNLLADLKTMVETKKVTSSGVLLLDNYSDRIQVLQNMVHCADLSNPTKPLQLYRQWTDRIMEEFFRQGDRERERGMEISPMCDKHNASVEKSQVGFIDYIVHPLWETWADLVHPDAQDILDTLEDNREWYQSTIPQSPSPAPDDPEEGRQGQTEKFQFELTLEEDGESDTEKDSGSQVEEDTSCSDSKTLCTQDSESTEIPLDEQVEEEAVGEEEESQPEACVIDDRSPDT
Description: PDE4 Expression: Sf21 cells are grown to a density of 2×10^6 cells/ml and infected with human PDE4A, PDE4B or PDE4D3 containing baculovirus to a multiplicity of infection (m.o.i.) of 1 for 72 hours. The infected cells are harvested by centrifugation at 1,400 g for 4 minutes at 4° C. and the cell pellets are frozen at −80° C. Sf21 (Spodoptera frugiperda 21) insect cells are routinely maintained at densities between 3×105 and 3×10^6 cells/ml in SF00 Serum Free Medium (Invitorgen Life Technologies). Sf21 cells (1×109) are resuspended in 100 ml cold (4° C.) Lysis Buffer (50 mM Na2HP04, 200 mM NaCl, 10 mM Imidazole). Cells are incubated on ice for 30 minutes then centrifuged at 15,000 g for 20 minutes at 4° C.
PDE4 Purification: The 6 Histidine-tagged PDE4 proteins are isolated from crude cell lysates by a batch-wise Ni-NTA purification strategy (QIAGEN). N-NTA resin is first pre-rinsed to remove ethanol preservative and equilibrated with Lysis Buffer. Cell lysate is added, (10 ml 50% Ni-NTA slurry resin per 50 ml lysate), and gently rotated on a mixer at 4° C. for 1-2 h. The sample is then centrifuged at 1,000 g for 5 minutes at 4° C. using Denley benchtop centrifuge. The supernatant is removed and the resin is washed 3 times with 50 ml ice cold Wash Buffer (50 mM Na2HP04, 300 mM NaCl and 20 mM imidazole) followed by centrifugation at 1,000 g for 5 minutes at 4° C. The 6His-tagged protein is eluted from the resin with 3×5 ml ice cold Elution Buffer (50 mM NaH2PO4, 300 mM NaCl, 250 mM imidazole) and collected by centrifugation at 1,000 g for 5 minutes at 4° C. The supernatants are then pooled before buffer exchange and concentration using a VivaScience 20 ml 5K 0.2 μM Concentrator. Samples are aliquoted and stored at −20° C.
PDE4 Assay: The assay is based on Amersham Pharmacia Biotech Scintillation Proximity Assay (SPA) technology. Enzyme is diluted with enzyme dilution buffer (10 mM Tris-HCl, pH 7.5 containing 1 mM EDTA) in order to obtain between 10-30% total substrate hydrolysis during the assay. The enzymatic reaction is started by adding 10 μl diluted enzyme to 80 μl substrate (0.1 μCi [3H]-cAMP, 1 μM cAMP) and 10 μl inhibitor solution in a 96-well microtiter plate. After 30-60 minutes incubation at room temperature the reaction is stopped by adding 50 μl PDE SPA beads (20 mg/ml). After 30 minutes the plate is centrifuged (3000 g, 10 minutes) and counted (Packard TopCount).
The concentration of DMSO is kept constant at 1% (v/v) throughout the assay. The concentration at which 50% inhibition occurs (IC50) is determined from inhibition—concentration curves in a conventional manner.

| Compound | IC50 (human PDE4D) | melting point |
| --- | --- | --- |
| N#Cc1cccc(-c2nc(N3CCNCC3)cc3cccnc23)c1 (as salt: hydrochloride) [Example 4, 3-(6-Piperazin-1-yl-[1,7]naphthyridin-8-yl)-benzonitrile] | – | > 250 °C |
| CN1CCN(c2cc3cccnc3c(-c3cccc(C#N)c3)n2)CC1 [Example 15] | 10.4 nM | – |
| O=C(O)C1CCN(c2cc3cccnc3c(-c3ccc(F)c(Cl)c3)n2)CC1 [Example 39] | 8 nM | – |

Other lines, results leading:

| IC50 (human PDE4D) | melting point | Compound |
| --- | --- | --- |
| 3.1 nM | > 200 °C | N#Cc1cccc(-c2nc(N3CCC(C(=O)[O-])CC3)cc3cccnc23)c1.[Li+] [Example 3, 1-[8-(3-Cyano-phenyl)-[1,7]naphthyridin-6-yl]-piperidine-4-carboxylic acid, Lithium salt] |
| 2.5 nM | – | N#Cc1cccc(-c2nc(N3CCOCC3)cc3cccnc23)c1 [Example 12] |
| 1 nM | 132 to 133 °C | N#Cc1cccc(-c2nc(N3CCC(O)C3)cc3cccnc23)c1 (centres unmarked) [Example 1, 3-[6-(3-Hydroxy-pyrrolidin-1-yl)-[1,7]naphthyridin-8-yl]-benzonitrile] |
